{"source": "patent US20150329608A1", "about": "(INSTITUT PASTEUR, priority 2008, published 2015)", "key": {"[1]": {"test_system": "colic inflammation in rats", "assay": "Colic inflammation model (intrarectal TNBS)", "format": "in vivo, rat", "settings": "opiorphin 1 mg/kg i.v."}, "[2]": {"test_system": "acute pain behavioral response in male rats"}, "[3]": {"test_system": "locomotor activity in rats", "settings": "opiorphin 1 mg/kg i.v.; vs control", "procedure": "The measured variables are the number of upright standing movements (vertical activity) and the number of passages into the two compartments (horizontal activity) during a period of 3 min. The reference molecule is imipramine (20 mg/kg)."}, "[4]": {"test_system": "anxiety in Wistar male rats"}, "[5]": {"test_system": "pharmaco-dependency behavior in rats", "settings": "opiorphin at effective analgesic doses (1 mg/kg), repeated administration"}, "[6]": {"test_system": "tail-flick response in male Wistar rats", "procedure": "Male Wistar rats (Harlan, France) weighing 250 to 280 g at the beginning of the experiment were used in this study. After 7-day acclimatization period, they were weighed and randomly housed according to the treatment groups in a room with a 12 h alternating light/dark cycle (21:00 p.m./9:00 a.m.) and controlled temperature (21±1° C.) and hygrometry (50±5%). Food and water were available ad libidum. They were experimentally only tested once.\n(§1) All drugs were administered in a volume of 1 ml/kg body weight.\nThe tail-flick test evaluating the time required to respond to acute thermal stimulus preferentially reflects nociceptive spinal reflex. A standardized tail-flick apparatus (Harvard Apparatus LTD, Edenbridge, England) with a radiant heat source connected to an automated tail-flick analgesymeter was used. Rats were accustomed to the situation of contention for two 2-min sessions, the day prior the test. On experimental day, they were gently restrained by hand so the radiant heat source was focused onto the distal dorsal surface of the tail. […] Under these experimental conditions and in reference to morphine, a 5 sec cut-off time was established to prevent tissue damage. […] For tolerance induction rats received daily intravenous administration of freshly prepared solutions during seven consecutive days.\nThe results were expressed as mean±SEM. The significance of differences between groups was evaluated using the Kruskal-Wallis one-way analysis of variance by ranks (KWT, a non-parametric method) for comparison between several independent variables across the experimental conditions. […] The non-parametric Wilcoxon matched pairs test (WT) was used to compare two paired variables with repeated measures in each treatment group. For all statistical evaluations, the level of significance was set at P<0.05. All statistical analyses were carried out using the computer software StatView®5 statistical package (SAS, Institute, Inc., USA)."}, "[7]": {"test_system": "despair or resignation behavior in adult male rats", "assay": "Behavioral despair test (forced swimming test)", "procedure": "The protective effect against resignation may be determined by the forced swimming test in rats.\nThe peptide to be tested is administered after the pre-test session and before the test. The immobility time of the rats is recorded for 5 min during the pre-test and the test.\nThe test includes a pre-test session of 15 minutes and a test session of 5 minutes, after 24 hours. During the pre-test session, the behavior of the rat is recorded during the first 5 minutes. At the end of the pre-test, the rat is removed from the water, delicately dried, treated and then put back in his dwelling cage. During the test, the rat is again deposited in water and its behavior is recorded for 5 minutes.\nThe reference substance was 8-OH-DOAT (0.5 mg/kg) which is a 5-HT1a agonist or imipramine (20 mg/kg), which is an inhibitor of serotonin reuptake."}, "[8]": {"test_system": "chronic pain behavioral response in rats", "assay": "Formalin test (chronic chemical inflammatory pain)", "procedure": "The reference substance is morphine, at a dose of 2 mg/kg.\nThe antagonistic effect of the following ligands was analyzed: an opioid antagonist with a wide spectrum (Naloxone, 3 mg/kg) and selective antagonists of the opioid μ-receptors (CTOP, 0.8 mg/kg), δ-receptors (Naltrindole, 10 mg/kg) and κ-receptors (Nor-Binaltorphimine, 5 mg/kg), respectively.\nas §1"}}, "note": "Peptide text beside a SMILES is read from it."}
{"compound": "NC(=O)CC[C@H](N)C(=O)N[C@@H](CCCN=C(N)N)C(=O)N[C@@H](Cc1ccccc1)C(=O)N[C@@H](CO)C(=O)N[C@@H](CCCN=C(N)N)C(=O)O", "note": "[opiorphin, QRFSR] (H-QRFSR-OH)", "values": [{"measurement": "protection of the colic wall from inflammation", "setting": "[1]", "result": "does not protect the colic wall from inflammation"}, {"measurement": "antinociceptive activity compared with morphine", "setting": "[2]; opiorphin 1 mg/kg i.v. vs morphine 6 mg/kg i.p.", "result": "equivalent"}, {"measurement": "antinociceptive activity", "setting": "[2]; opiorphin 1 mg/kg i.v., n=8-12 rats/group", "result": "potent antinociceptive activity"}, {"measurement": "anti-peristaltic effect", "setting": "peristaltism in rats; rats treated with opiorphin", "result": "not observed"}, {"measurement": "latency time for entering the dark compartment, Test", "setting": "memorization in rats; 24 hours after, Opiorphin 1 mg/kg i.v. given immediately after pre-test, average ±SEM, n=8", "result": "158.5 ± 20.5"}, {"measurement": "amnesia effect", "setting": "memorization in rats; opiorphin 1 mg/kg i.v.", "result": "does not show any amnesia effect"}, {"measurement": "hyperactivity effect", "setting": "[3]", "result": "nor any significant hyperactivity effect"}, {"measurement": "overall anxiety score, Average ± SEM", "setting": "[4]; Opiorphin 1 mg/kg i.v., 15 minutes before the test, n=8", "result": "25.94 ± 3.74"}, {"measurement": "anxiolytic activity relatively to the control", "setting": "[4]; opiorphin 1 mg/kg i.v.", "result": "did not show any anxiolytic activity"}, {"measurement": "pharmaco-dependence", "setting": "[5]", "result": "does not cause significant pharmaco-dependence"}, {"measurement": "response latencies vs morphine-treated rats", "setting": "[6]; 15, 25 and 60 minutes after treatment, Opiorphin 2 mg/kg i.v. vs morphine 1 mg/kg i.v.", "result": "did not significantly differ"}, {"measurement": "tolerance to maximal antinociceptive effect", "setting": "[6]; Opiorphin 2 mg/kg i.v. once daily for 7 days", "result": "does not induce the development of tolerance"}, {"measurement": "dose of maximal antinociceptive effect", "setting": "[6]; preliminary data, dose-dependent responses", "result": 2, "unit": "mg/kg"}, {"measurement": "effects of opiorphin in the presence of Naltrindole", "setting": "[7]; Naltrindole 10 mg/kg, specific antagonist of δ-opioid receptors", "result": "abolished"}, {"measurement": "dose of maximum antidepressant potency", "setting": "[7]; administered intravenously, adult male rats", "result": 1, "unit": "mg/kg"}, {"measurement": "immobility time in the test vs control group (Mann-Whitney)", "setting": "[7]; opiorphin 0.5 mg/kg i.v.", "result": "tends to be less than that of the rats from the control group"}, {"measurement": "immobility time in the test vs control group (Mann-Whitney)", "setting": "[7]; opiorphin 1 mg/kg i.v.", "result": "significantly less than that of the rats from the control group"}, {"measurement": "immobility time, change between pre-test and test (Wilcoxon)", "setting": "[7]; opiorphin 1 mg/kg i.v.", "result": "significantly decreases between the pre-test and the test"}, {"measurement": "effect in the behavioral despair model", "setting": "[7]; opiorphin 1 mg/kg i.v., second series", "result": "induces an antidepressant effect in addition to a psychostimulant effect"}, {"measurement": "immobility time in the test vs control group (Mann-Whitney)", "setting": "[7]; opiorphin 2 mg/kg i.v.", "result": "significantly less than that of the rats from the control group"}, {"measurement": "immobility time, change between pre-test and test (Wilcoxon)", "setting": "[7]; opiorphin 2 mg/kg i.v.", "result": "significantly decreases between the pre-test and the test"}, {"measurement": "analgesic effect of opiorphin in the presence of Naloxone", "setting": "[8]; Naloxone 3 mg/kg", "result": "abolished"}, {"measurement": "prolonged analgesic profile, dose effect", "setting": "[8]; duration of licking of the paw and number of spasms, n=8 rats/group", "result": "significant dose-dependent effect"}, {"measurement": "dose of maximum anti-nociceptive potency", "setting": "[8]; i.v., duration of licking of the paw and number of spasms, 60 min", "result": "1 to 2", "unit": "mg/kg"}, {"measurement": "analgesic effect of opiorphin in the presence of CTPA", "setting": "[8]; specific antagonist of μ-opioid receptors, 0.8 mg/kg", "result": "abolished"}]}
{"compound": "CCCN(CCC)C1CCc2cccc(O)c2C1", "note": "(stereo not drawn) [8-OH-DPAT, reference compound]", "values": [{"measurement": "immobility time in the test vs control group (Mann-Whitney)", "setting": "[7]; 8-OH-DPAT 0.5 mg/kg", "result": "significantly less than that of the rats from the control group"}, {"measurement": "immobility time, change between pre-test and test (Wilcoxon)", "setting": "[7]; 8-OH-DPAT 0.5 mg/kg", "result": "significantly decreases between the pre-test and the test"}]}
{"compound": "CN1CC[C@]23c4c5ccc(O)c4O[C@H]2[C@@H](O)C=C[C@H]3[C@H]1C5", "note": "[morphine, reference compound]", "values": [{"measurement": "inhibition of peristaltism as compared with control rats", "setting": "peristaltism in rats; rats treated with morphine", "result": "80-90%"}, {"measurement": "morphine-induced increase vs Opiorphin-induced response, day 7", "setting": "[6]; 15 min post-injection, after 7 days chronic treatment", "result": "tended to be lower than the response induced by Opiorphin"}]}
{"compound": "CC(C)Cc1ccc(C(C)C(=O)O)cc1", "note": "(stereo not drawn) [ibuprofen, reference compound]", "values": [{"measurement": "protection of the colic wall from inflammation", "setting": "[1]", "result": "protect the colic wall from inflammation"}]}
